Reference: patent publication US12414990B2, “Use of HLA-A*11:01-restricted hepatitis B virus (HBV) peptides for identifying HBV-specific CD8+ T cells” (AGENCY FOR SCIENCE, TECHNOLOGY AND RESEARCH, priority 2019, dated 2025)

System: HLA-A*11:01-restricted antigen-specific CD8+ T cells in patient's PBMC
Assay: Highly multiplexed combinatorial pMHC tetramer staining with mass cytometry (epitope mapping, frequency of antigen-specific CD8+ T cells)
[1] = Inactive Carrier (InA) CHB patients, patients with detected tetramer+ CD8+ T cells (frequency > 0.002%) / patients in the group, per epitope cluster
[2] = patients with detected epitope-specific CD8+ T cells / patients tested, Inactive Carrier (InA) group, Freq > 0.002%
[3] = patients with detected epitope-specific CD8+ T cells / patients tested, Immune Tolerant (IT) group, Freq > 0.002%
[4] = patients with detected epitope-specific CD8+ T cells / patients tested, acute resolved (R) group, Freq > 0.002%
[5] = patients with detected epitope-specific CD8+ T cells / patients tested, Immune Active (IA) group, Freq > 0.002%
[6] = Immune Active (IA) patients, donors with tetramer+ CD8+ T cell frequency > 0.002% / donors tested
[7] = Immune Tolerant (IT) patients, donors with tetramer+ CD8+ T cell frequency > 0.002% / donors tested
[8] = Inactive Carrier (InA) patients, donors with tetramer+ CD8+ T cell frequency > 0.002% / donors tested
[9] = acute resolved (R) patients, donors with tetramer+ CD8+ T cell frequency > 0.002% / donors tested
[10] = Immune Active (IA) CHB patients, patients with detected tetramer+ CD8+ T cells (frequency > 0.002%) / patients in the group, per epitope cluster
[11] = Immune Tolerant (IT) CHB patients, patients with detected tetramer+ CD8+ T cells (frequency > 0.002%) / patients in the group, per epitope cluster
[12] = Acute resolved (R) patients, patients with detected tetramer+ CD8+ T cells (frequency > 0.002%) / patients in the group, per epitope cluster

AGFFLLTK
Hits (Freq > 0.002%) InA [1]: 1/13

AMGDAGGYK
Hits (Freq > 0.002%) InA [2]: 1/13

ASCMGLIYNR
Hits (Freq > 0.002%) IT [3]: 1/8 | Hits (Freq > 0.002%) InA [2]: 1/13 | Hits (Freq > 0.002%) R [4]: 1/12

ATVLMGLGK
Hits (Freq > 0.002%) IA [5]: 1/12 | Hits (Freq > 0.002%) IT [3]: 1/8 | Hits (Freq > 0.002%) InA [2]: 1/13

ATVQGQNLK
Hits (Freq > 0.002%) IA [5]: 2/12 | Hits (Freq > 0.002%) IT [3]: 3/8 | Hits (Freq > 0.002%) InA [2]: 9/13 | Hits (Freq > 0.002%) R [4]: 4/12

AVVRRRCRSPR
Hits (Freq > 0.002%) IA [6]: 6/12 | Hits (Freq > 0.002%) IT [7]: 3/8 | Hits (Freq > 0.002%) InA [8]: 2/13 | Hits (Freq > 0.002%) R [9]: 1/12

CSCPTVQASK
Hits (Freq > 0.002%) InA [2]: 2/13

GILPRSSVGPR
Hits (Freq > 0.002%) IA [10]: 1/12 | Hits (Freq > 0.002%) InA [1]: 3/13

GSCIQSQLRK
Hits (Freq > 0.002%) IT [11]: 1/8

GSTHVSWPK
Hits (Freq > 0.002%) IA [6]: 1/12 | Hits (Freq > 0.002%) IT [7]: 1/8

GTLPQEHIVLK
Hits (Freq > 0.002%) R [9]: 1/12

GTSGSPIVNR
Hits (Freq > 0.002%) IA [5]: 4/12 | Hits (Freq > 0.002%) IT [3]: 5/8 | Hits (Freq > 0.002%) InA [2]: 4/13 | Hits (Freq > 0.002%) R [4]: 4/12

GVWIRTPPAYR
Hits (Freq > 0.002%) InA [2]: 1/13

HTLWKAGILYK
Hits (Freq > 0.002%) R [12]: 2/12 | Hits (Freq > 0.002%) IA [10]: 4/12 | Hits (Freq > 0.002%) IT [11]: 1/8 | Hits (Freq > 0.002%) InA [1]: 1/13

IVQKIKMCFRK
Hits (Freq > 0.002%) IA [6]: 1/12 | Hits (Freq > 0.002%) IT [7]: 1/8 | Hits (Freq > 0.002%) R [9]: 2/12

KIKMCFRK
Hits (Freq > 0.002%) IT [7]: 2/8 | Hits (Freq > 0.002%) R [9]: 1/12

KLVGINMSKK
Hits (Freq > 0.002%) InA [2]: 1/13

KSGAIKVLK
Hits (Freq > 0.002%) InA [2]: 1/13

KTAYSHLSTSK
Hits (Freq > 0.002%) R [12]: 7/12 | Hits (Freq > 0.002%) IT [11]: 8/8

KTFDSEYVK
Hits (Freq > 0.002%) R [4]: 1/12

KTFVDLMRR
Hits (Freq > 0.002%) IA [5]: 1/12

KTYGRKLHLY
Hits (Freq > 0.002%) IT [7]: 1/8 | Average of hits (%) IT (Immune Tolerant (IT) patients, mean frequency of antigen-specific CD8+ T cells among hits): 0.002007%

KVFVLGGCRHK
Hits (Freq > 0.002%) IA [5]: 1/12 | Hits (Freq > 0.002%) IT [3]: 1/8 | Hits (Freq > 0.002%) R [4]: 2/12

LLYKTFGRK
Hits (Freq > 0.002%) IA [6]: 5/12 | Hits (Freq > 0.002%) IT [7]: 4/8 | Hits (Freq > 0.002%) InA [8]: 5/13 | Hits (Freq > 0.002%) R [9]: 1/12

LQAGFFLLTK
Hits (Freq > 0.002%) IA [10]: 1/12

LSLGIHLNPNK
Hits (Freq > 0.002%) IA [6]: 3/12 | Hits (Freq > 0.002%) InA [8]: 1/13

LSYLHFRK
Hits (Freq > 0.002%) R [12]: 2/12 | Hits (Freq > 0.002%) IA [10]: 4/12 | Hits (Freq > 0.002%) IT [11]: 3/8 | Hits (Freq > 0.002%) InA [1]: 1/13

LTFGRETVLE
Hits (Freq > 0.002%) InA [2]: 1/13 | Hits (Freq > 0.002%) R [4]: 1/12

LTINENRRLK
Hits (Freq > 0.002%) IA [10]: 1/12

LVFQTSER
Hits (Freq > 0.002%) R [12]: 1/12 | Hits (Freq > 0.002%) InA [1]: 1/13

LVVDFSQFSR
Hits (Freq > 0.002%) IA [6]: 9/12 | Hits (Freq > 0.002%) IT [7]: 5/8 | Hits (Freq > 0.002%) InA [8]: 9/13 | Hits (Freq > 0.002%) R [9]: 9/12

LVYRPTTGR
Hits (Freq > 0.002%) IA [6]: 1/12 | Hits (Freq > 0.002%) InA [8]: 1/13

MATYGWNLVK
Hits (Freq > 0.002%) IA [5]: 1/12 | Hits (Freq > 0.002%) InA [2]: 1/13

MLLYKTYGRK
Hits (Freq > 0.002%) InA [8]: 1/13

MSMTDLEAYFK
Hits (Freq > 0.002%) IA [5]: 1/12 | Hits (Freq > 0.002%) R [4]: 1/12

MVSRLLLNR
Hits (Freq > 0.002%) IA [5]: 1/12

NLNVSIPWTHK
Hits (Freq > 0.002%) R [12]: 1/12 | Hits (Freq > 0.002%) IA [10]: 8/12 | Hits (Freq > 0.002%) IT [11]: 4/8 | Hits (Freq > 0.002%) InA [1]: 3/13

PSFPHIHLK
Hits (Freq > 0.002%) R [12]: 1/12 | Hits (Freq > 0.002%) IT [11]: 1/8

PTYKAFLSK
Hits (Freq > 0.002%) IA [6]: 2/12 | Hits (Freq > 0.002%) IT [7]: 1/8 | Hits (Freq > 0.002%) InA [8]: 2/13 | Hits (Freq > 0.002%) R [9]: 1/12

QQGSMASGK
Hits (Freq > 0.002%) InA [1]: 1/13

QSSGILSR
Hits (Freq > 0.002%) R [12]: 1/12

QTSERHGDK
Hits (Freq > 0.002%) R [12]: 1/12 | Hits (Freq > 0.002%) InA [1]: 1/13

QVLPKVLHK
Hits (Freq > 0.002%) IA [6]: 1/12

RGNTRVSWPK
Hits (Freq > 0.002%) IA [6]: 2/12 | Hits (Freq > 0.002%) IT [7]: 1/8 | Hits (Freq > 0.002%) InA [8]: 1/13 | Hits (Freq > 0.002%) R [9]: 1/12

RIINNQHR
Hits (Freq > 0.002%) IA [6]: 1/12 | Hits (Freq > 0.002%) R [9]: 1/12

RSQSPRRRRSK
Hits (Freq > 0.002%) IT [3]: 8/8 | Hits (Freq > 0.002%) InA [2]: 6/13 | Hits (Freq > 0.002%) R [4]: 6/12

RTQSPRRRR
Hits (Freq > 0.002%) IA [5]: 6/12 | Hits (Freq > 0.002%) IT [3]: 1/8 | Hits (Freq > 0.002%) InA [2]: 5/13 | Hits (Freq > 0.002%) R [4]: 2/12

RTTWSIHAK
Hits (Freq > 0.002%) IA [5]: 5/12 | Hits (Freq > 0.002%) IT [3]: 2/8 | Hits (Freq > 0.002%) InA [2]: 3/13 | Hits (Freq > 0.002%) R [4]: 3/12

RVTGGVFLVDK
Hits (Freq > 0.002%) IA [6]: 1/12

SFSFGGFTFK
Hits (Freq > 0.002%) IA [5]: 2/12 | Hits (Freq > 0.002%) InA [2]: 2/13 | Hits (Freq > 0.002%) R [4]: 1/12

SQIGAGVYK
Hits (Freq > 0.002%) IA [5]: 3/12 | Hits (Freq > 0.002%) IT [3]: 1/8 | Hits (Freq > 0.002%) InA [2]: 2/13 | Hits (Freq > 0.002%) R [4]: 1/12

SSAGPCALR
Hits (Freq > 0.002%) InA [8]: 2/13

SSARSQSER
Hits (Freq > 0.002%) InA [8]: 1/13

SSCLHQPAVRK
Hits (Freq > 0.002%) InA [1]: 1/12

SSCSSCPLSK
Hits (Freq > 0.002%) IT [3]: 6/8 | Hits (Freq > 0.002%) R [4]: 8/12

STFHQALLDPR
Hits (Freq > 0.002%) IA [10]: 1/12

STISSILSK
Hits (Freq > 0.002%) IA [10]: 1/12 | Hits (Freq > 0.002%) InA [1]: 1/13

STLPETAVVRR
Hits (Freq > 0.002%) IA [6]: 4/12 | Hits (Freq > 0.002%) InA [8]: 7/13 | Hits (Freq > 0.002%) R [9]: 9/12

STNRQSGRK
Hits (Freq > 0.002%) R [12]: 1/12 | Hits (Freq > 0.002%) IA [10]: 7/12 | Hits (Freq > 0.002%) IT [11]: 5/8 | Hits (Freq > 0.002%) InA [1]: 4/13

STQVSWPK
Hits (Freq > 0.002%) IT [7]: 2/8 | Hits (Freq > 0.002%) R [9]: 1/12
